# Marks after values point to notes of the source that are not given here.
# How the values were obtained:
# [1] = Pharmacokinetic study: availability of test drug at site of action; assay type: in vivo; settings: healthy rats, single oral dose 250 mg/kg, feces 0-24 h
# Procedure: The blood samples were collected at 0, 0.25, 0.50, 1, 2, 3, 4, 5 and 6 hours after dosing. Plasma was obtained by centrifugation of blood at 7000 rpm for 15 min at 4° C. and kept at −20° C. until analysis was carried out. The animals were kept in the metabolic cages for collection of urine and feces.
# TNBS induced IBD = test: TNBS induced colitis in rats; assay type: in vivo, Male Wistar rats
# From the text: In addition, increased body weight, decreased ulcer index and myeloperoxidase activity in colon is seen.
# The trinitrobenzenesulfonic acid (TNBS) induced colitis is one of the standard animal models used for IBD. In this model, a single intracolonic administration of TNBS damages the colonic epithelium and induces prolonged chronic inflammation.
# Procedure: In this study, Male Wistar rats (280-291 g) were fasted for 48 hrs, and put under anaesthesia. A 3 mm diameter cannula was inserted into the anus to the depth of 8 cm and 25 mg of TNBS dissolved in 0.25 ml of 30% ethanol solution was injected to each rat. The rats were positioned tail up for 1 minute. […] A healthy control group receiving only saline but no TNBS was maintained. On day 11, each group of rats were sacrificed by cervical dislocation and the colon was isolated for physical examination. Colon samples were preserved in 10% neutral formalin solution for histopathological evaluation.
# [2] = tested on: acetic acid induced colitis; test: Acetic acid induced colitis in rats; assay type: in vivo, Male Wistar rats; settings: 50 mg/kg p.o. once daily, pretreatment for 3 days, n = 6
# From the text: The acetic-acid induced colitis is a model of IBD with a similarity of the inflammatory mediators to that of acute human intestinal inflammation.
# Procedure: In this model, initial injury was an epithelial necrosis and edema that variably extended into the lamina propria, submucosa, or external muscle layers, depending of the concentrations and length of exposure to acetic acid. […] Rats were fasted for 24 hrs, anesthetized and a cannula that has 3 mm diameter was inserted into the anus to the depth of 8 cm for instilling 2 ml of 3% acetic acid into the colon for 30 s. After 24 hrs, animals were sacrificed by cervical dislocation, the colon was isolated and the parameters of colitis were measured. […] The reversal of acetic acid induced conditions such as increased colon weight and colon weight to length ratio, which indicated beneficial effects of test drugs on colitis. These effects were further confirmed by decrease in macroscopic lesion score and myeloperoxidase activity in colon tissues.
# [3] = tested on: H. pylori (ATCC 26695, strain MS-5); test: H. Pylori infected rats with NSAID induced ulcers (RUT and PCR); assay type: in vivo, Helicobacter Pylori
# Naproxen induced ulcers = Naproxen induced ulcers in rats, prophylactic; assay type: in vivo, Male Wistar rats; settings: then Naproxen 30 mg/kg p.o., n = 6
# From the text: Gastric lesions induced by NSAIDS drugs such as Naproxen can aggravate inflammatory reactions in the GI tract.
# histamine induced ulcers = test: Histamine (stress) induced ulcers in rats, prophylactic; assay type: in vivo, Male Wistar rats; settings: then Histamine 300 mg/kg i.p., n = 6
# From the text: Stress induced gastric lesion is a condition that can cause or aggravate inflammatory reactions in the GI tract.
# ethanol induced ulcers = test: Ethanol induced ulcers in rats, prophylactic; assay type: in vivo, Male Wistar rats; settings: then Ethanol 8 ml/kg p.o., n = 6
# Procedure: Consumption of alcohol is another major factor resulting in gastric lesions.
# The mean ulcer area in this study was measured to be 174.4 mm^2±5.814 mm^2 in the control group indicating the ulcerogenic effect of ethanol.
# [4] = tested on: inflammatory bowel disease; test: Prospective study in patients with IBD, patient reported outcome; assay type: in vivo, Humans; set-up: key to Bleeding, Patient Recorded Outcome / Frequent trips to the bathroom, Patient Recorded Outcome / Dependence on medication diarrhea and pain, Patient Recorded Outcome / Abdominal pain, Patient Recorded Outcome / Diarrhea, Patient Recorded Outcome: 0—Absence; 1—Mild; 2—Moderate; 3—Severe; settings: 300 mg twice daily for 6 months; for Abdominal pain, Patient Recorded Outcome / Bleeding, Patient Recorded Outcome / Dependence on medication diarrhea and pain, Patient Recorded Outcome / Diarrhea, Patient Recorded Outcome / Frequent trips to the bathroom, Patient Recorded Outcome: IBD
# Procedure: A prospective study to assess the efficacy of the test drug in patients with IBD was conducted.
# Thereafter, the efficacy of the test drug was analyzed on the basis of patient reported outcome taken at the beginning and end of the study period. Observations: It was observed that all patients were experiencing relief from IBD related symptoms such as abdominal pain, diarrhea, rectal bleeding, fever, nausea and vomiting. It was further observed that there was significant improvement in bowel control which was seen from reduced frequency of visits to restrooms, dependence on diarrhoea medication and pain associated with bowel movement.
# hemorrhoids = test: Prospective uncontrolled pilot study in patients with hemorrhoids, patient reported outcome; assay type: in vivo, Humans; settings: for Bloody stool, Median Value of Patient Reported Outcome / Difficulty to sit or walk, Median Value of Patient Reported Outcome / Edema, Median Value of Patient Reported Outcome / Itching, Median Value of Patient Reported Outcome / Pain, Median Value of Patient Reported Outcome: hemorrhoids, n = 5, scale 0 - Absence to 5 - Severe
# Procedure: A prospective uncontrolled pilot study to access the efficacy of the test drug in patients with hemorrhoids was conducted. […] The efficacy of the test drug was analyzed on the basis of patient reported outcome taken at the beginning and end of the study period. […] It was further observed that there was significant relief in pain and irritation associated with bowel movement by the end of the treatment period.
# [5] = TNBS induced IBD in rats, 50 mg/kg p.o. once daily, 10 days of treatment, n = 6
# [6] = colon, TNBS induced IBD in rats, 50 mg/kg p.o. once daily, 10 days of treatment, n = 6
# [7] = rats pretreated with 30 mg/kg p.o.
# [8] = rats pretreated with 60 mg/kg p.o.
# [9] = rats pretreated with 120 mg/kg p.o.
# [10] = After Treatment, 300 mg twice daily for 15 days
smiles,measurement,setting,value
"C[C@H]1[C@H](C)CC[C@]2(C(=O)OC3O[C@H](CO[C@H]4O[C@H](CO)[C@@H](O[C@@H]5O[C@@H](C)[C@H](O)[C@@H](O)[C@H]5O)[C@H](O)[C@H]4O)[C@@H](O)[C@H](O)[C@H]3O)CC[C@]3(C)C(=CCC4[C@@]5(C)C[C@@H](O)[C@H](O)[C@@](C)(CO)[C@@H]5CC[C@]43C)[C@H]12 (stereo partly drawn) [Test Drug, Asiaticoside]",drug recovered from fecal matter,[1],about 81.42%
same,Colon length,TNBS induced IBD; [5],14.14 ± 0.53 mm
same,Colon weight,TNBS induced IBD; [5],1.71 ± 0.07 g
same,Colon width,TNBS induced IBD; [5],0.73 ± 0.13 mm
same,Body weight,"TNBS induced IBD; TNBS induced IBD in rats, Day 0, before treatment, n = 6",252.67 ± 3.121^ns1
same,Body weight,"TNBS induced IBD; TNBS induced IBD in rats, Day 11 (10 days of treatment), 50 mg/kg p.o. once daily, n = 6",293.00 ± 0.84***^
same,Body weight,"TNBS induced IBD; TNBS induced IBD in rats, Normal (Day −2), before treatment, n = 6",286.50 ± 3.14^ns1
same,rectal bleeding,"TNBS induced IBD; TNBS induced IBD model, post treatment after TNBS administration",significantly reduced after 3rd day
same,Microscopic score,TNBS induced IBD; [6],4.40 ± 0.68
same,Myeloperoxidase activity,TNBS induced IBD; [6],0.02 ± 0.0003 U/mg
same,Colon length,[2],16.22 ± 0.63 mm
same,Colon weight,[2],1.53 ± 0.10 g
same,Colon width,[2],0.71 ± 0.05 mm
same,Microscopic score,[2]; colon,4.33 ± 0.71
same,Myeloperoxidase activity,[2]; colon,0.02 ± 0.002 U/mg
same,ulcer area,[3]; H. Pylori infected rats with NSAID induced ulcers,dose dependent and time dependent reduction
same,"eradication of H. Pylori infection (RUT, PCR)","[3]; H. pylori infected rats with Naproxen induced ulcers, 120 mg/kg p.o. twice daily",not effective in H. Pylori eradication
same,"eradication of H. Pylori infection (RUT, PCR)","[3]; H. pylori infected rats with Naproxen induced ulcers, 240 mg/kg p.o. once daily",not effective in H. Pylori eradication
same,antibacterial action on H. Pylori infection,"[3]; H. pylori infected rats with Naproxen induced ulcers, 360 mg/kg p.o. once daily",rapid antibacterial action on 3rd week
same,"eradication of H. Pylori infection (RUT, PCR)","[3]; H. pylori infected rats with Naproxen induced ulcers, 360 mg/kg p.o. once daily, 9 weeks",eradication of H. Pylori infection in 9 weeks
same,Area of Ulceration,Naproxen induced ulcers; [7],5.49 ± 0.212^ns mm^2
same,Area of Ulceration,Naproxen induced ulcers; [8],4.52 ± 0.169**^ mm^2
same,Area of Ulceration,Naproxen induced ulcers; [9],2.632 ± 0.146***^ mm^2
same,Area of Ulceration,histamine induced ulcers; [7],9.242 ± 0.415* mm^2
same,Area of Ulceration,histamine induced ulcers; [8],7.062 ± 0.362*** mm^2
same,Area of Ulceration,histamine induced ulcers; [9],4.598 ± 0.323*** mm^2
same,Area of Ulceration,ethanol induced ulcers; [7],159.3 ± 4.846* mm^2
same,Area of Ulceration,ethanol induced ulcers; [8],137.6 ± 4.069*** mm^2
same,Area of Ulceration,ethanol induced ulcers; [9],110.4 ± 2.305*** mm^2
same,"Abdominal pain, Patient Recorded Outcome","[4]; Patient 1, After",1
same,"Bleeding, Patient Recorded Outcome","[4]; Patient 1, After",0
same,"Dependence on medication diarrhea and pain, Patient Recorded Outcome","[4]; Patient 1, After",0
same,"Diarrhea, Patient Recorded Outcome","[4]; Patient 1, After",0
same,"Frequent trips to the bathroom, Patient Recorded Outcome","[4]; Patient 1, After",0
same,"Abdominal pain, Patient Recorded Outcome","[4]; Patient 1, Before",3
same,"Bleeding, Patient Recorded Outcome","[4]; Patient 1, Before",3
same,"Dependence on medication diarrhea and pain, Patient Recorded Outcome","[4]; Patient 1, Before",3
same,"Diarrhea, Patient Recorded Outcome","[4]; Patient 1, Before",3
same,"Frequent trips to the bathroom, Patient Recorded Outcome","[4]; Patient 1, Before",3
same,"Abdominal pain, Patient Recorded Outcome","[4]; Patient 2, After",0
same,"Bleeding, Patient Recorded Outcome","[4]; Patient 2, After",0
same,"Dependence on medication diarrhea and pain, Patient Recorded Outcome","[4]; Patient 2, After",0
same,"Diarrhea, Patient Recorded Outcome","[4]; Patient 2, After",0
same,"Frequent trips to the bathroom, Patient Recorded Outcome","[4]; Patient 2, After",1
same,"Abdominal pain, Patient Recorded Outcome","[4]; Patient 2, Before",3
same,"Bleeding, Patient Recorded Outcome","[4]; Patient 2, Before",3
same,"Dependence on medication diarrhea and pain, Patient Recorded Outcome","[4]; Patient 2, Before",3
same,"Diarrhea, Patient Recorded Outcome","[4]; Patient 2, Before",3
same,"Frequent trips to the bathroom, Patient Recorded Outcome","[4]; Patient 2, Before",3
same,"Abdominal pain, Patient Recorded Outcome","[4]; Patient 3, After",1
same,"Bleeding, Patient Recorded Outcome","[4]; Patient 3, After",0
same,"Dependence on medication diarrhea and pain, Patient Recorded Outcome","[4]; Patient 3, After",1
same,"Diarrhea, Patient Recorded Outcome","[4]; Patient 3, After",2
same,"Frequent trips to the bathroom, Patient Recorded Outcome","[4]; Patient 3, After",0
same,"Abdominal pain, Patient Recorded Outcome","[4]; Patient 3, Before",3
same,"Bleeding, Patient Recorded Outcome","[4]; Patient 3, Before",3
same,"Dependence on medication diarrhea and pain, Patient Recorded Outcome","[4]; Patient 3, Before",3
same,"Diarrhea, Patient Recorded Outcome","[4]; Patient 3, Before",3
same,"Frequent trips to the bathroom, Patient Recorded Outcome","[4]; Patient 3, Before",3
same,"incidences of joint pain, skin diseases or eye related complications",[4]; three IBD patients,"no incidences of joint pain, skin diseases or eye related complications"
same,tolerability,[4]; three IBD patients,well tolerated
same,"Bloody stool, Median Value of Patient Reported Outcome",hemorrhoids; [10],0
same,"Difficulty to sit or walk, Median Value of Patient Reported Outcome",hemorrhoids; [10],1
same,"Edema, Median Value of Patient Reported Outcome",hemorrhoids; [10],1
same,"Itching, Median Value of Patient Reported Outcome",hemorrhoids; [10],2
same,"Pain, Median Value of Patient Reported Outcome",hemorrhoids; [10],2
same,"Bloody stool, Median Value of Patient Reported Outcome",hemorrhoids; Before Treatment,5
same,"Difficulty to sit or walk, Median Value of Patient Reported Outcome",hemorrhoids; Before Treatment,5
same,"Edema, Median Value of Patient Reported Outcome",hemorrhoids; Before Treatment,3
same,"Itching, Median Value of Patient Reported Outcome",hemorrhoids; Before Treatment,5
same,"Pain, Median Value of Patient Reported Outcome",hemorrhoids; Before Treatment,5
same,relief of rectal bleeding,"hemorrhoids; five hemorrhoid patients, 300 mg twice daily",all patients were relieved of rectal bleeding on the 3rd day of treatment
